Legend:
Assay type in all cases: cell-based
human keratinocytes [1] = test: Transglutaminase (TG-1) Assay; details: for TG-1/DNA % of CONTROL / TG-1/DNA (Absorbance/Arbitrary Units of DNA ± Standard Deviation): three days
Description: (§1) Normal human keratinocytes, isolated from neonatal foreskin by trypsin treatment, were grown in Dulbecco's Modified Eagle's Medium (DMEM, Life Technologies, Grand Island, N.Y.) with 10% fetal bovine serum in the presence of irradiated mouse fibroblasts for establishing dividing keratinocyte colonies. Cells were incubated until their second passage and stored at −70° C. for future use. All incubations took place at 37° C. with 5% CO2. Frozen second passage keratinocytes were thawed and plated in T-175 flasks (Corning, Corning, N.Y.) with DMEM and grown for five days. After reaching 80% confluence, they were trypsinized and seeded into 6-well plates containing keratinocyte growth medium (KGM, Clonetics, San Diego, Calif.) with 0.15 mM calcium.
A sample of the keratinocytes grown in the keratinocyte culture described above, were placed in KGM (2 ml per well) at 0.2 million cells/plate in 6-well plates and re-grown for five days until the cells reached approximately […], since TG-1 only begins to become expressed after confluence. […] One set of triplicate wells was left untreated to serve as control. After three days of incubation, cells were washed thoroughly with phosphate buffered saline (PBS, 10 mM sodium phosphate, 138 mM sodium chloride, 2.7 mM potassium chloride, pH 7.4) and placed at −70° C. for 2 hours. Cells were then thawed for two hours. The DNA content of cells was quantified by using the DNA-binding fluorophore, bis-benzimidazole (Hoechst 33258) and measuring the specific fluorescence of the DNA-bound fluorophore (360 nm excitation, 450 nm emission). Cellular TG-1 levels were determined by using a transglutaminase-1 (TG-1) specific monoclonal antibody as the primary antibody (BC1, Amersham, UK) and a peroxidase labeled rabbit antimouse IgG as the secondary antibody (Amersham, UK). The plates were blocked at room temperature with 5% nonfat milk in Tris-buffered saline (TBS, 10 mM Tris, 150 mM NaCL, pH 8.0) for one hour followed by two hours incubation with the primary antibody (1:4000 dilution) in 1% milk/TBS at room temperature. After rinsing the plates three times with 1% milk/TBS containing 0.05% Tween 20 (Bio-Rad, Hercules, Calif.), the plates were incubated with a 1:4000 dilution of the secondary antibody at room temperature for two hours. The plates were then rinsed three times with 1% milk/0.05% Tween 20/TBS and three times with PBS. Color was developed by incubation with o-phenylene-diamine (Sigma, St. Louis, Mo.) and hydrogen peroxide (Sigma) dissolved in a 1:1 mixture of 0.2 M dibasic sodium phosphate (Sigma) and 0.1 M citric acid at pH 5.0(Sigma). Solutions were transferred to 4 mL plastic cuvets (Fisher Scientific, Pittsburgh, Pa.) and the absorbance was read at 492 nm on an Ultraspec 3000 spectrophotometer (Pharmacia, Piscataway, N.J.) and TG-1 levels were expressed as absorbence/DNA fluoroscence.
(§2) Concentrations used in the examples below are of pulegone in a corn oil droplet. The in vitro concentration may not be relevant to in vivo concentration because there is partitioning between the oil and the culture medium. The medium concentration of the active is not the oil droplet concentration of the active. For the pulegone to elicit its effect on the cultured cells, it must diffuse out of the corn oil into the culture medium where it is then accessible to the cells. The pulegone concentration in the culture medium is therefore considerably less than the concentration in the corn oil droplet.

human keratinocytes [2] = test: Lipid Analysis (ceramides expression); details: for CERAMIDES % of CONTROL / CERAMIDES (ng/μg PROTEIN ± S.D.): three days
Description: as §1
A sample of the keratinocytes that were grown in the keratinocyte culture described above were placed in KGM (2 ml per well) at 0.2 million per 6-well plates and re-grown for five days until approximately 20% confluence was reached. Cells were fed and treated with pulegone as described above for the TG-1 Assay. After three days of treatment, cells were rinsed twice with PBS, then harvested by adding 3 ml of 0.1 N NaOH (Fisher) to each well and scraping with a rubber policeman. The supernatants were transferred to 16 mm×100 mm glass test tubes with teflon-coated caps and incubated for 1 hour at 70° C. After cooling to room temperature, a 50 μl aliquot was removed for protein determination (Pierce BCA assay, Rockford, Ill.). To each tube 320 μl of 1 N HCl and 2.5 ml of chloroform were added and the tubes mixed well. The tubes were then placed on a tumbler and agitated for thirty minutes. The mixtures were then centrifuged for 10 minutes at 2000×g. 2 mL of chloroform were removed from the organic phase and placed in an autosampler vial. The samples were then dried evaporated under N2, resuspended in 60 μl of chloroform:methanol 2:1 and transferred to an autosampler insert microtube which was placed inside another autosampler vial whcih was sealed. 40 μl of the sample was spotted (Camag Automatic TLC Sampler III, Wilmington, N.C.) on silica TLC plates (Whatman 4807-700) and the plates were developed in horizontal chambers (Camag) using the following solvent system: 1. 95:4.5:0.5 chloroform, methanol, acetic acid and 2. 60:40:2 hexane, ethyl ether, acetic acid. Following immersion in 10% copper sulfate in 8% phosphoric acid, plates were charred at 165° C. for 20 minutes and then read in a densitometer (Camag TLC Scanner II). The results were expressed in ng cermaides/μg protein.
as §2

human keratinocytes [3] = test: Glucose Uptake Assay (3H 2-deoxy-glucose); details: for GLUCOSE UPTAKE % of CONTROL / GLUCOSE UPTAKE (cpm/μg PROTEIN ± S.D.): 4 hours preincubation
Description: as §1
A sample of the keratinocytes grown in the keratinocyte culture described above, were plated in KGM medium at either 0.5 or 1 million cells/plate in six well plates and incubated for 4 days. The medium was then aspirated, and the wells were rinsed twice with Phosphate Buffered Saline (PBS), then the plates were incubated (1 mL/well) for 24 hours. The medium was replaced with fresh KBM, 10 μl of corn oil containing pulegone at various concentrations were added and cells were allowed to incubate (for 4 hours at 37° C.) before 2 μCi of ^3H 2-deoxy-glucose (Amersham, UK) were added to each well. Samples were then incubated for one hour. The medium was aspirated and wells were rinsed three times with PBS before the addition of 500 μL of 0.1N NaOH/well. After 10 minutes of agitation on a shaker, a 25 μL aliquot was removed for protein analysis, and 200 μL were transferred to a scintillation vial containing 5 mL Scintillation cocktail (Scintiverse) and counting was performed on a Beckman counter. ^3H-Glucose uptake results were expressed as CPM/μg protein.
as §2

[4] = pulegone 1% in corn oil droplet
[5] = pulegone 2.5% in corn oil droplet
[6] = pulegone 5% in corn oil droplet

`CC(C)=C1CCC(C)CC1=O` (stereo not shown) [Pulegone, 5-Methyl-2-(1-methylethylidene)cyclohexanone] was tested, and the “TG-1/DNA % of CONTROL” value (human keratinocytes [1]; [4]) was 121%, the “TG-1/DNA (Absorbance/Arbitrary Units of DNA ± Standard Deviation)” value (human keratinocytes [1]; [4]) was 15.45 ± 2.32 Absorbance/Arbitrary Units of and the “TG-1/DNA % of CONTROL” value (human keratinocytes [1]; [5]) was 196%. For the same molecule, the “TG-1/DNA (Absorbance/Arbitrary Units of DNA ± Standard Deviation)” value (human keratinocytes [1]; [5]) was 24.96 ± 4.85 Absorbance/Arbitrary Units of, the “TG-1/DNA % of CONTROL” value (human keratinocytes [1]; [6]) was 286% and the “TG-1/DNA (Absorbance/Arbitrary Units of DNA ± Standard Deviation)” value (human keratinocytes [1]; [6]) was 36.40 ± 0.89 Absorbance/Arbitrary Units of. For the same molecule, the “transglutaminase-1 expression in comparison to untreated keratinocytes” value (human keratinocytes [1]; pulegone at 2.5% and 5% in corn oil) was “increased transglutaminase-1 expression”, the “CERAMIDES % of CONTROL” value (human keratinocytes [2]; [4]) was 65% and the “CERAMIDES (ng/μg PROTEIN ± S.D.)” value (human keratinocytes [2]; [4]) was 8.97 ± 1.17 ng/μg PROTEIN. The “CERAMIDES % of CONTROL” value (human keratinocytes [2]; [5]) was 171%, the “CERAMIDES (ng/μg PROTEIN ± S.D.)” value (human keratinocytes [2]; [5]) was 23.8 ± 11.0 ng/μg PROTEIN and the “CERAMIDES % of CONTROL” value (human keratinocytes [2]; [6]) was 308%. For the same molecule, the “CERAMIDES (ng/μg PROTEIN ± S.D.)” value (human keratinocytes [2]; [6]) was 42.8 ± 6.91 ng/μg PROTEIN, the “expression of ceramides in comparison to untreated keratinocytes” value (human keratinocytes [2]; pulegone in corn oil) was “increased expression of ceramides” and the “GLUCOSE UPTAKE % of CONTROL” value (human keratinocytes [3]; [4]) was 77%. The “GLUCOSE UPTAKE (cpm/μg PROTEIN ± S.D.)” value (human keratinocytes [3]; [4]) was 3.71 ± 0.35 cpm/μg PROTEIN, the “GLUCOSE UPTAKE % of CONTROL” value (human keratinocytes [3]; [6]) was 189% and the “GLUCOSE UPTAKE (cpm/μg PROTEIN ± S.D.)” value (human keratinocytes [3]; [6]) was 9.14 ± 0.69 cpm/μg PROTEIN. For the same molecule, the glucose uptake (human keratinocytes [3]; pulegone in corn oil) was “significantly increased glucose uptake”.

Reference: patent US6391324B1, “Cosmetic skin care compositions containing pulegone” (Unilever Home & Personal Care USA, Division of Conopco, priority 2000, dated 2002)
